In article doi:10.64898/2025.12.30.696991 (bioRxiv, 2026):

Legend:
Experiment in all cases: Antibiotic disc inhibition zone on Mueller-Hinton agar
Settings in all cases: experiment performed twice
S. Typhimurium (XEN-33) = format: cell-based, Salmonella enterica serovar Typhimurium
E. coli (TOP10) = format: cell-based, Escherichia coli
Experimental: (§1) Susceptible (ATCC 700720) and MDR (ATCC 700408) strains of S. enterica serovar Typhimurium were obtained from American Type Culture Collection (ATCC Manassas, VA) and cultured in nutrient broth (BD Difco, Detroit, MA). Murine macrophage cell line RAW 264.7 (ATCC TIB-71) was maintained in Dulbecco's modified Eagle's medium (DMEM) (GIBCO, Invitrogen, Carlsbad, CA) supplemented with 10% fetal bovine serum (FBS) (GIBCO) and 1% penicillin-streptomycin (P/S) (GIBCO). Cells were cultured at 37°C in a 5% CO2 atmosphere and used up to passage 10 once received from ATCC. Susceptible and MDR activity of S. Typhimurium was confirmed on Mueller-Hinton agar (BD Difco, Detroit, MA) plates with antibiotic discs (Thermo Fisher Scientific, Waltham, MA) and compared to Escherichia coli (TOP10) and S. Typhimurium XEN-33 (Table 3).

[1] = system: Susc. S. Typhimurium (ATCC700720); format: cell-based, Salmonella enterica serovar Typhimurium
Experimental: as §1, with “ATCC.” for “ATCC. Susceptible and MDR activity of S. Typhimurium was confirmed on Mueller-Hinton agar (BD Difco, Detroit, MA) plates with antibiotic discs (Thermo Fisher Scientific, Waltham, MA) and compared to Escherichia coli (TOP10) and S. Typhimurium XEN-33 (Table 3).”

[2] = system: MDR S. Typhimurium (ATCC700408); format: cell-based, Salmonella enterica serovar Typhimurium
Experimental: as §1, with “ATCC.” for “ATCC. Susceptible and MDR activity of S. Typhimurium was confirmed on Mueller-Hinton agar (BD Difco, Detroit, MA) plates with antibiotic discs (Thermo Fisher Scientific, Waltham, MA) and compared to Escherichia coli (TOP10) and S. Typhimurium XEN-33 (Table 3).”

Compound | Disc inhibition zone (diameter) (S. Typhimurium (XEN-33)) | Disc inhibition zone (diameter) (E. coli (TOP10)) | Disc inhibition zone (diameter) [1] | Disc inhibition zone (diameter) [2]
CC1(C)S[C@@H]2[C@H](NC(=O)[C@H](N)c3ccccc3)C(=O)N2[C@H]1C(=O)O [Ampicillin] | 18 mm | 17 mm | 19 mm | 0 mm
CO/N=C(\C(=O)N[C@@H]1C(=O)N2C(C(=O)O)=C(CSc3nc(=O)c(O)nn3C)CS[C@H]12)c1csc(N)n1 [Ceftriaxo] | 26 mm | 30 mm | 26 mm | 28 mm
O=C(N[C@H](CO)[C@H](O)c1ccc([N+](=O)[O-])cc1)C(Cl)Cl [Chloramphenicol] | 24 mm | 28 mm | 24 mm | 0 mm
O=C(O)c1cn(C2CC2)c2cc(N3CCNCC3)c(F)cc2c1=O [Ciprofloxacin] | 25 mm | 37 mm | 30 mm | 30 mm
CNC(C)C1CCC(N)C(OC2C(N)CC(N)C(OC3OCC(C)(O)C(NC)C3O)C2O)O1 (centres unmarked) [Gentamicin] | 18 mm | 17 mm | 17 mm | 18 mm
NC[C@H]1O[C@H](O[C@H]2[C@H](O)[C@@H](O[C@H]3O[C@H](CO)[C@@H](O)[C@H](N)[C@H]3O)[C@H](N)C[C@@H]2N)[C@H](O)[C@@H](O)[C@@H]1O [Kanamycin] | 0 mm | 20 mm | 17 mm | 17 mm
C[C@H]1COc2c(N3CCN(C)CC3)c(F)cc3c(=O)c(C(=O)O)cn1c23 [Levofloxacin] | 27 mm | 34 mm | 32 mm | 32 mm
CCn1cc(C(=O)O)c(=O)c2ccc(C)nc21 [Nalidixic Acid] | 20 mm | 30 mm | 21 mm | 21 mm
[H]/N=C(/N)N[C@H]1[C@H](O)[C@@H](O)[C@H](O[C@@H]2O[C@@H](C)[C@](O)(C=O)[C@H]2O[C@@H]2O[C@@H](CO)[C@H](O)[C@@H](O)[C@@H]2NC)[C@@H](N/C(N)=N\[H])[C@@H]1O [Streptomycin] | 13 mm | 0 mm | 12 mm | 0 mm
CN(C)[C@@H]1C(O)=C(C(N)=O)C(=O)[C@@]2(O)C(O)=C3C(=O)c4c(O)cccc4[C@@](C)(O)[C@H]3C[C@@H]12 [Tetracycline] | 0 mm | 24 mm | 22 mm | 13 mm
Cotrimoxazole | 0 mm | 29 mm | 25 mm | 24 mm
